Tests used:
Conditions in all cases: incubation time: 72 h
BT-474 = experiment: drug sensitivity score (DSS), CellTiter-Blue viability (DSS (AUC-based score)); higher = stronger viability inhibition; extreme values may be limits of the assay
Description: (§1)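 DSRT with the CellTiter-Blue (resazurin reduction) viability readout, fluorescence 560/590 nm, 72 h incubation. Plates were normalised to DMSO and benzethonium chloride controls. DSS is computed from the area under the fitted dose-response curve (5 or 9 concentrations).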

BT-549 = experiment: as above
Description: as §1

MDA-MB-453 [1] = experiment: as above
Description: as §1

HCC1937 [2] = experiment: as above
Description: as §1

Hs578T = experiment: as above
Description: as §1

CAL-85-1 = experiment: as above
Description: as §1

DU-4475 = experiment: as above
Description: as §1

HDQ-P1 [3] = experiment: as above
Description: as §1

MDA-MB-468 = experiment: as above
Description: as §1

MDA-MB-231 = experiment: as above
Description: as §1

CAL-51 [4] = experiment: as above
Description: as §1

SK-BR-3 = experiment: as above
Description: as §1

CAL-120 = experiment: as above
Description: as §1

MDA-MB-436 [5] = experiment: as above
Description: as §1

HCC1599 [6] = experiment: as above
Description: as §1

CAL-148 = experiment: as above
Description: as §1

HCC1143 = experiment: as above
Description: as §1

MFM-223 [7] = experiment: as above
Description: as §1

MDA-MB-453 [8] = experiment: normalised viability (% of control), CellTiter-Blue; higher = more viable cells (about 100 = DMSO control)
In short: (§2)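 Normalised viability is given for a single listed concentration of the series. In 384-well plates, breast cancer cell lines were incubated 72 h with compound, then read with CellTiter-Blue (2 h, 37 °C) at 560/590 nm. Per-plate scaling set vehicle to 100 and a positive kill control to 0, with Z'-factor quality control.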

HCC1937 [9] = experiment: as above
In short: as §2

HDQ-P1 [10] = experiment: as above
In short: as §2

CAL-51 [11] = experiment: as above
In short: as §2

MDA-MB-436 [12] = experiment: as above
In short: as §2

HCC1599 [13] = experiment: as above
In short: as §2

MFM-223 [14] = experiment: as above
In short: as §2

Compound: CC(C)(C)NC(=O)[C@H]1CC[C@H]2[C@@H]3CC[C@H]4NC(=O)C=C[C@]4(C)[C@H]3CC[C@]12C [Finasteride]
- drug sensitivity score (BT-474): 0
- drug sensitivity score (BT-549): 0
- drug sensitivity score (MDA-MB-453 [1]): 1.81
- drug sensitivity score (HCC1937 [2]): 0
- drug sensitivity score (Hs578T): 0
- drug sensitivity score (CAL-85-1): 0
- drug sensitivity score (DU-4475): 3.01
- drug sensitivity score (HDQ-P1 [3]): 0
- drug sensitivity score (MDA-MB-468): 0
- drug sensitivity score (MDA-MB-231): 0
- drug sensitivity score (CAL-51 [4]): 1.63
- drug sensitivity score (SK-BR-3): 0
- drug sensitivity score (CAL-120): 0
- drug sensitivity score (MDA-MB-436 [5]): 0
- drug sensitivity score (HCC1599 [6]): 0
- drug sensitivity score (CAL-148): 1.45
- drug sensitivity score (HCC1143): 0
- drug sensitivity score (MFM-223 [7]): 1.79
- normalised viability (MDA-MB-453 [8]; 3 nM): 117%
- normalised viability (MDA-MB-453 [8]; 30 nM): 98.2%
- normalised viability (MDA-MB-453 [8]; 100 nM): 112%
- normalised viability (HCC1937 [9]; 10 nM): 107%
- normalised viability (HCC1937 [9]; 1000 nM): 94.7%
- normalised viability (HCC1937 [9]; 10000 nM): 106%
- normalised viability (HDQ-P1 [10]; 3 nM): 121%
- normalised viability (HDQ-P1 [10]; 30 nM): 116%
- normalised viability (HDQ-P1 [10]; 100 nM): 130%
- normalised viability (CAL-51 [11]; 3 nM): 112%
- normalised viability (CAL-51 [11]; 30 nM): 108%
- normalised viability (CAL-51 [11]; 100 nM): 103%
- normalised viability (MDA-MB-436 [12]; 10 nM): 91%
- normalised viability (MDA-MB-436 [12]; 1000 nM): 97.8%
- normalised viability (MDA-MB-436 [12]; 10000 nM): 96.3%
- normalised viability (HCC1599 [13]; 10 nM): 97.1%
- normalised viability (HCC1599 [13]; 1000 nM): 114%
- normalised viability (HCC1599 [13]; 10000 nM): 83.4%
- normalised viability (MFM-223 [14]; 10 nM): 106%
- normalised viability (MFM-223 [14]; 1000 nM): 97.7%
- normalised viability (MFM-223 [14]; 10000 nM): 41.8%

Compound: Nc1ccn([C@@H]2O[C@H](CO)[C@@H](O)C2(F)F)c(=O)n1 [Gemcitabine]
- drug sensitivity score (BT-474): 0
- drug sensitivity score (BT-549): 6.97
- drug sensitivity score (MDA-MB-453 [1]): 11
- drug sensitivity score (HCC1937 [2]): 16.2
- drug sensitivity score (Hs578T): 7.89
- drug sensitivity score (CAL-85-1): 12
- drug sensitivity score (DU-4475): 10.7
- drug sensitivity score (HDQ-P1 [3]): 0
- drug sensitivity score (MDA-MB-468): 16.1
- drug sensitivity score (MDA-MB-231): 7.17
- drug sensitivity score (CAL-51 [4]): 17.6
- drug sensitivity score (SK-BR-3): 13.4
- drug sensitivity score (CAL-120): 14.7
- drug sensitivity score (MDA-MB-436 [5]): 9.62
- drug sensitivity score (HCC1599 [6]): 7.74
- drug sensitivity score (CAL-148): 16.9
- drug sensitivity score (HCC1143): 13.2
- drug sensitivity score (MFM-223 [7]): 2.55
- normalised viability (MDA-MB-453 [8]; 0.3 nM): 114%
- normalised viability (MDA-MB-453 [8]; 3 nM): 91.7%
- normalised viability (MDA-MB-453 [8]; 10 nM): 97.9%
- normalised viability (HCC1937 [9]; 1 nM): 92.3%
- normalised viability (HCC1937 [9]; 100 nM): 38.8%
- normalised viability (HCC1937 [9]; 1000 nM): 27.9%
- normalised viability (HDQ-P1 [10]; 0.3 nM): 110%
- normalised viability (HDQ-P1 [10]; 3 nM): 108%
- normalised viability (HDQ-P1 [10]; 10 nM): 100%
- normalised viability (CAL-51 [11]; 0.3 nM): 102%
- normalised viability (CAL-51 [11]; 3 nM): 98%
- normalised viability (CAL-51 [11]; 10 nM): 83.2%
- normalised viability (MDA-MB-436 [12]; 1 nM): 98.1%
- normalised viability (MDA-MB-436 [12]; 100 nM): 53.1%
- normalised viability (MDA-MB-436 [12]; 1000 nM): 52.5%
- normalised viability (HCC1599 [13]; 1 nM): 99.4%
- normalised viability (HCC1599 [13]; 100 nM): 65.9%
- normalised viability (HCC1599 [13]; 1000 nM): 25.4%
- normalised viability (MFM-223 [14]; 1 nM): 99.7%
- normalised viability (MFM-223 [14]; 100 nM): 95.6%
- normalised viability (MFM-223 [14]; 1000 nM): 34.9%

Compound: CC(C)C[C@H](NC(=O)[C@@H](COC(C)(C)C)NC(=O)[C@H](Cc1ccc(O)cc1)NC(=O)[C@H](CO)NC(=O)[C@H](Cc1c[nH]c2ccccc12)NC(=O)[C@H](Cc1cnc[nH]1)NC(=O)[C@@H]1CCC(=O)N1)C(=O)N[C@@H](CCCNC(=N)N)C(=O)N1CCC[C@H]1C(=O)NNC(N)=O [Goserelin]
- drug sensitivity score (BT-474): 0
- drug sensitivity score (BT-549): 0
- drug sensitivity score (MDA-MB-453 [1]): 0
- drug sensitivity score (HCC1937 [2]): 0
- drug sensitivity score (Hs578T): 0
- drug sensitivity score (CAL-85-1): 0
- drug sensitivity score (DU-4475): 0
- drug sensitivity score (HDQ-P1 [3]): 0
- drug sensitivity score (MDA-MB-468): 0
- drug sensitivity score (MDA-MB-231): 0
- drug sensitivity score (CAL-51 [4]): 0
- drug sensitivity score (SK-BR-3): 0
- drug sensitivity score (CAL-120): 0
- drug sensitivity score (MDA-MB-436 [5]): 0
- drug sensitivity score (HCC1599 [6]): 0
- drug sensitivity score (CAL-148): 0
- drug sensitivity score (HCC1143): 0
- drug sensitivity score (MFM-223 [7]): 0
- normalised viability (MDA-MB-453 [8]; 3 nM): 115%
- normalised viability (MDA-MB-453 [8]; 30 nM): 101%
- normalised viability (MDA-MB-453 [8]; 100 nM): 102%
- normalised viability (HCC1937 [9]; 10 nM): 104%
- normalised viability (HCC1937 [9]; 1000 nM): 85.1%
- normalised viability (HCC1937 [9]; 10000 nM): 97.4%
- normalised viability (HDQ-P1 [10]; 3 nM): 104%
- normalised viability (HDQ-P1 [10]; 30 nM): 109%
- normalised viability (HDQ-P1 [10]; 100 nM): 103%
- normalised viability (CAL-51 [11]; 3 nM): 107%
- normalised viability (CAL-51 [11]; 30 nM): 104%
- normalised viability (CAL-51 [11]; 100 nM): 105%
- normalised viability (MDA-MB-436 [12]; 10 nM): 95.6%
- normalised viability (MDA-MB-436 [12]; 1000 nM): 97.3%
- normalised viability (MDA-MB-436 [12]; 10000 nM): 94%
- normalised viability (HCC1599 [13]; 10 nM): 107%
- normalised viability (HCC1599 [13]; 1000 nM): 83.8%
- normalised viability (HCC1599 [13]; 10000 nM): 90.2%
- normalised viability (MFM-223 [14]; 10 nM): 92.1%
- normalised viability (MFM-223 [14]; 1000 nM): 87.8%
- normalised viability (MFM-223 [14]; 10000 nM): 100%

Compound: CC(=O)[C@]1(O)Cc2c(O)c3c(c(O)c2[C@@H](O[C@H]2C[C@H](N)[C@H](O)[C@H](C)O2)C1)C(=O)c1ccccc1C3=O [Idarubicin]
- drug sensitivity score (BT-474): 10.2
- drug sensitivity score (BT-549): 11.5
- drug sensitivity score (MDA-MB-453 [1]): 4.55
- drug sensitivity score (HCC1937 [2]): 21.4
- drug sensitivity score (Hs578T): 11.4
- drug sensitivity score (CAL-85-1): 6.93
- drug sensitivity score (DU-4475): 18.3
- drug sensitivity score (HDQ-P1 [3]): 6.33
- drug sensitivity score (MDA-MB-468): 14.2
- drug sensitivity score (MDA-MB-231): 11.9
- drug sensitivity score (CAL-51 [4]): 21
- drug sensitivity score (SK-BR-3): 17.7
- drug sensitivity score (CAL-120): 14.5
- drug sensitivity score (MDA-MB-436 [5]): 9.77
- drug sensitivity score (HCC1599 [6]): 0.917
- drug sensitivity score (CAL-148): 19.7
- drug sensitivity score (HCC1143): 8.64
- drug sensitivity score (MFM-223 [7]): 6
- normalised viability (MDA-MB-453 [8]; 0.3 nM): 108%
- normalised viability (MDA-MB-453 [8]; 3 nM): 98.4%
- normalised viability (MDA-MB-453 [8]; 10 nM): 100%
- normalised viability (HCC1937 [9]; 1 nM): 90.3%
- normalised viability (HCC1937 [9]; 100 nM): 22.1%
- normalised viability (HCC1937 [9]; 1000 nM): 21.3%
- normalised viability (HDQ-P1 [10]; 0.3 nM): 118%
- normalised viability (HDQ-P1 [10]; 3 nM): 120%
- normalised viability (HDQ-P1 [10]; 10 nM): 104%
- normalised viability (CAL-51 [11]; 0.3 nM): 106%
- normalised viability (CAL-51 [11]; 3 nM): 98%
- normalised viability (CAL-51 [11]; 10 nM): 44.2%
- normalised viability (MDA-MB-436 [12]; 1 nM): 113%
- normalised viability (MDA-MB-436 [12]; 100 nM): 57.5%
- normalised viability (MDA-MB-436 [12]; 1000 nM): 18.8%
- normalised viability (HCC1599 [13]; 1 nM): 111%
- normalised viability (HCC1599 [13]; 100 nM): 102%
- normalised viability (HCC1599 [13]; 1000 nM): 49.2%
- normalised viability (MFM-223 [14]; 1 nM): 107%
- normalised viability (MFM-223 [14]; 100 nM): 92.5%
- normalised viability (MFM-223 [14]; 1000 nM): 11.5%
